Test results as given in ChEMBL document CHEMBL2440076, “New triarylpyrazoles as broad-spectrum anticancer agents: design, synthesis, and biological evaluation” (Eur J Med Chem, 2013).

Legend:
[1] = test system: NCI-H322M; test: Growth inhibition of human NCI-H322M cells assessed as cell growth at 10 uM after 48 hrs by sulforhodamine B assay; type: functional; conditions: read-out: Activity
[2] = test system: U-251; test: Growth inhibition of human U251 cells assessed as cell growth at 10 uM after 48 hrs by sulforhodamine B assay; type: functional; conditions: U-251, 48 h, read-out: Activity
[3] = test system: HOP-62; test: Growth inhibition of human HOP62 cells assessed as cell growth at 10 uM after 48 hrs by sulforhodamine B assay; type: functional; conditions: HOP-62, 48 h, read-out: Activity
[4] = test system: SK-OV-3; test: Growth inhibition of human SKOV3 cells assessed as cell growth at 10 uM after 48 hrs by sulforhodamine B assay; type: functional; conditions: SK-OV-3, 48 h, read-out: Activity
[5] = test system: CAKI-1; test: Growth inhibition of human CAKI-1 cells assessed as cell growth at 10 uM after 48 hrs by sulforhodamine B assay; type: functional; conditions: CAKI-1, 48 h, read-out: Activity
[6] = test system: PC-3; test: Growth inhibition of human PC3 cells assessed as cell growth at 10 uM after 48 hrs by sulforhodamine B assay; type: functional; conditions: PC-3, 48 h, read-out: Activity
[7] = test system: MDA-MB-435; test: Growth inhibition of human MDA-MB-435 cells assessed as cell growth at 10 uM after 48 hrs by sulforhodamine B assay; type: functional; conditions: MDA-MB-435, 48 h, read-out: Activity
[8] = test system: HL-60(TB); test: Growth inhibition of human HL-60(TB) cells assessed as cell growth at 10 uM after 48 hrs by sulforhodamine B assay; type: functional; conditions: HL-60, 48 h, read-out: Activity
[9] = test system: COLO 205; test: Growth inhibition of human COLO205 cells assessed as cell growth at 10 uM after 48 hrs by sulforhodamine B assay; type: functional; conditions: COLO 205, 48 h, read-out: Activity
[10] = test system: NCI-H522; test: Growth inhibition of human NCI-H522 cells assessed as cell growth at 10 uM after 48 hrs by sulforhodamine B assay; type: functional; conditions: NCI-H522, 48 h, read-out: Activity
[11] = test system: NCI-H23; test: Growth inhibition of human NCI-H23 cells assessed as cell growth at 10 uM after 48 hrs by sulforhodamine B assay; type: functional; conditions: NCI-H23, 48 h, read-out: Activity
[12] = test system: BT-549; test: Growth inhibition of human BT549 cells assessed as cell growth at 10 uM after 48 hrs by sulforhodamine B assay; type: functional; conditions: BT-549, 48 h, read-out: Activity
[13] = test system: LOX IMVI; test: Growth inhibition of human LOXIMVI cells assessed as cell growth at 10 uM after 48 hrs by sulforhodamine B assay; type: functional; conditions: read-out: Activity
[14] = test system: SF-268; test: Growth inhibition of human SF268 cells assessed as cell growth at 10 uM after 48 hrs by sulforhodamine B assay; type: functional; conditions: SF-268, 48 h, read-out: Activity
[15] = Growth inhibition of human NCI-ADR-RES cells assessed as cell growth at 10 uM after 48 hrs by sulforhodamine B assay; type: functional; conditions: read-out: Activity
[16] = test system: Malme-3M; test: Growth inhibition of human MALME-3M cells after 48 hrs by sulforhodamine B assay; type: functional
[17] = test system: OVCAR-5; test: Growth inhibition of human OVCAR5 cells after 48 hrs by sulforhodamine B assay; type: functional; conditions: OVCAR-5, 48 h
[18] = test system: K562; test: Growth inhibition of human K562 cells after 48 hrs by sulforhodamine B assay; type: functional; conditions: K562, 48 h
[19] = test system: MDA-MB-231; test: Growth inhibition of human MDA-MB-231 cells after 48 hrs by sulforhodamine B assay; type: functional; conditions: MDA-MB-231, 48 h
[20] = test system: MCF7; test: Growth inhibition of human MCF7 cells after 48 hrs by sulforhodamine B assay; type: functional; conditions: MCF7, 48 h
[21] = test system: NCI-H23; test: Growth inhibition of human NCI-H23 cells after 48 hrs by sulforhodamine B assay; type: functional; conditions: NCI-H23, 48 h
[22] = test system: HOP-92; test: Growth inhibition of human HOP92 cells assessed as cell growth at 10 uM after 48 hrs by sulforhodamine B assay; type: functional; conditions: HOP-92, 48 h, read-out: Activity
[23] = test system: NCI-H226; test: Growth inhibition of human NCI-H226 cells after 48 hrs by sulforhodamine B assay; type: functional; conditions: NCI-H226, 48 h
[24] = test system: UACC-62; test: Growth inhibition of human UACC62 cells after 48 hrs by sulforhodamine B assay; type: functional; conditions: UACC-62, 48 h
[25] = test system: UO-31; test: Growth inhibition of human UO31 cells after 48 hrs by sulforhodamine B assay; type: functional; conditions: UO-31, 48 h
[26] = test system: SF-295; test: Growth inhibition of human SF295 cells after 48 hrs by sulforhodamine B assay; type: functional, cell-based; conditions: SF-295, 48 h
[27] = test system: SK-MEL-2; test: Growth inhibition of human SK-MEL-2 cells after 48 hrs by sulforhodamine B assay; type: functional; conditions: SK-MEL-2, 48 h
[28] = test system: HOP-62; test: Growth inhibition of human HOP62 cells after 48 hrs by sulforhodamine B assay; type: functional; conditions: HOP-62, 48 h
[29] = test system: LOX IMVI; test: Growth inhibition of human LOXIMVI cells after 48 hrs by sulforhodamine B assay; type: functional
[30] = test system: IGROV-1; test: Growth inhibition of human IGROV1 cells after 48 hrs by sulforhodamine B assay; type: functional; conditions: IGROV-1, 48 h
[31] = Growth inhibition of human HCC2998 cells after 48 hrs by sulforhodamine B assay; type: functional; conditions: HCC 2998, 48 h
[32] = test system: SK-MEL-28; test: Growth inhibition of human SK-MEL-28 cells after 48 hrs by sulforhodamine B assay; type: functional; conditions: SK-MEL-28, 48 h
[33] = test system: SF-268; test: Growth inhibition of human SF268 cells after 48 hrs by sulforhodamine B assay; type: functional; conditions: SF-268, 48 h
[34] = test system: MOLT-4; test: Growth inhibition of human MOLT4 cells after 48 hrs by sulforhodamine B assay; type: functional; conditions: MOLT-4, 48 h
[35] = read-out: LC50 (the source's name)

## O=C(Nc1cccc(-n2cc(-c3ccncc3)c(-c3ccc(Cl)c(O)c3)n2)c1)c1ccc(Cl)c(C(F)(F)F)c1
[1]
  growth at 10 µM: 108%
[2]
  growth at 10 µM: 95.9%
[3]
  growth at 10 µM: 99.4%
[4]
  growth at 10 µM: 102%
[5]
  growth at 10 µM: 100%
[6]
  growth at 10 µM: 85.7%
[7]
  growth at 10 µM: 97.8%
[8]
  growth at 10 µM: 196%
[9]
  growth at 10 µM: 104%
[10]
  growth at 10 µM: 94.4%
[11]
  growth at 10 µM: 105%
[12]
  growth at 10 µM: 94.5%
[13]
  growth at 10 µM: 91.3%
[14]
  growth at 10 µM: 98.1%
[15]
  growth at 10 µM: 104%

## O=C(Nc1cccc(-n2cc(-c3ccncc3)c(-c3ccc(Cl)c(O)c3)n2)c1)c1ccc(N2CCOCC2)c(C(F)(F)F)c1
[16]
  GI50: 1.25 µM
  LC50 (concentration killing 50% of starting cells): > 50 µM
  TGI: 4.08 µM
[17]
  GI50: > 50 µM
  LC50 (concentration killing 50% of cells): > 50 µM
  TGI: > 50 µM
[18]
  GI50: 1.88 µM
  TGI: > 50 µM
[18]; [35]
  CC50: > 50 µM
[19]
  GI50: 0.975 µM
  LC50: > 50 µM
  TGI: 15.6 µM
[1]
  growth at 10 µM: 82.1%
[2]
  growth at 10 µM: 11.8%
[3]
  growth at 10 µM: 40.4%
[4]
  growth at 10 µM: 74.2%
[5]
  growth at 10 µM: 81.2%
[6]
  growth at 10 µM: 27.2%
[7]
  growth at 10 µM: 35.2%
[20]
  GI50: 2.81 µM
  LC50: > 50 µM
  TGI: > 50 µM
[21]
  GI50: 4.2 µM
  LC50: > 50 µM
  TGI: 30.1 µM
[22]
  growth at 10 µM: 10.2%
[23]
  GI50: > 50 µM
  TGI: > 50 µM
[23]; [35]
  CC50: > 50 µM
[24]
  GI50: 3.26 µM
  LC50 (50% lethal concentration): > 50 µM
  TGI: 18.4 µM
[8]
  growth at 10 µM: 51.6%
[9]
  growth at 10 µM: 96.1%
[10]
  growth at 10 µM: 39.6%
[25]
  GI50: 2.6 µM
  TGI: 34.3 µM
[25]; [35]
  CC50: > 50 µM
[11]
  growth at 10 µM: 61.3%
[26]
  GI50: 1.71 µM
  IC50: 1.71 µM
  TGI: 7.55 µM
[26]; [35]
  CC50: 37 µM
[27]
  GI50: 2.89 µM
  LC50 (50% lethal concentration): > 50 µM
  TGI: 15.3 µM
[28]
  GI50: 9.38 µM
  TGI: > 50 µM
[28]; [35]
  CC50: > 50 µM
[29]
  GI50: 1.64 µM
  LC50: 44.8 µM
  TGI: 7.3 µM
[30]
  GI50: 9.42 µM
  LC50 (concentration killing 50% of cells): > 50 µM
  TGI: > 50 µM
[31]
  GI50: 5.66 µM
  TGI: > 50 µM
[31]; [35]
  CC50: > 50 µM
[32]
  GI50: 1.5 µM
  LC50: 42.9 µM
  TGI: 6.04 µM
[33]
  GI50: 5.58 µM
  TGI: > 50 µM
[33]; [35]
  CC50: > 50 µM
[34]
  GI50: 2.37 µM
  TGI: 36.7 µM
[34]; [35]
  CC50: > 50 µM
[12]
  growth at 10 µM: 63.6%
[13]
  growth at 10 µM: 9.98%
[14]
  growth at 10 µM: 55.5%
[15]
  growth at 10 µM: 43.9%
